Publication PMC6736837, “^18F-labelled triazolyl-linked argininamides targeting the neuropeptide Y Y1R for PET imaging of mammary carcinoma” (Scientific Reports, 2019)

Columns and labels:
[1] = Radioactive metabolites of Y1R radioligands in mouse blood; format: in vivo; conditions: for stability in the blood in vivo (in words): mouse blood samples taken early after radiotracer injection; for intact radioligand in blood samples: 5 min p.i.
Description: Nude mice were anesthetised with isoflurane and injected with the respective radiotracer (3–25 MBq) into the tail vein. After 5 min, animals were sacrificed by cervical dislocation and approx. 100 µL blood were collected from the abdomen and transferred into Li-heparinised Microvettes® (100 LH, Sarstedt). The same volume of aqueous urea (0.8 g/mL) was added and the Microvette® was centrifuged (2000 × g, 5 min). The supernatant was transferred to a 1.5 mL reaction vial, mixed with the same volume of 10% aqueous TFA and centrifuged (20000 × g, 5 min). This step was repeated once. A sample of the resulting supernatant (100 µL) was analysed by radio-HPLC using two methods (Chromolith RP-18e, 100 × 4.6 mm, 4 mL/min, 0–1 min 25% CH3CN (0.1%TFA) in water (0.1%TFA), 1–6 min 25–60%, 6–7 min 60–100%, 7–8 min 100%; Kromasil 100 C8 5 µm, 250 × 4.6 mm, 1.5 mL/min, 1–25 min 20–53.3% CH3CN (0.1% TFA) in water (0.1% TFA), 25–27 min 53.3–80%, 27–28 min 80–100%, 28–32 min 100%).

[2] = Biodistribution in healthy mice; format: in vivo, mouse; conditions: for kidney uptake: at 30 and 90 min p.i.
Description: Biodistribution studies were conducted using female NMRI outbred mice (HsdWin:NMRI) purchased from Envigo (Horst, The Netherlands). Mice were kept in groups of four to five animals in individually ventilated cages in a twelve hours dark/light cycle with unlimited access to water and standard chow. At the age of eight to nine weeks six animals per radiotracer were injected with 2–4 MBq of the respective radiotracer under isoflurane anesthesia. Mice were sacrificed by cervical dislocation 30 or 90 min p.i. of the radiotracer. Blood as well as the organs/tissues lung, liver, kidneys, heart, spleen, brain, muscle, intestines, gall bladder and bones were harvested and analysed in the γ-counter. Samples were weighed and radioactivity in different tissues was calculated as percentage of the total injected dose per gram tissue (%ID/g).

MCF-7-Y1 tumour slices = experiment: In-vitro autoradiography on MCF-7-Y1 tumour xenograft slices; format: binding, human; conditions: blocking with 1 µM and 10 µM BIBP3226
Description: MCF-7-Y1 tumour bearing mice were sacrificed by cervical dislocation under deep isoflurane anesthesia and tumours were excised and subsequently frozen in a hexane/dry ice bath (−70 °C). MCF-7-Y1 tumour slices (14 µm) were prepared on a cryostat microtome HM 500 O (Microm, Walldorf) and thaw-mounted on Histobond® adhesive glass slides (Marienfeld, Lauda-Königshofen).
For autoradiography studies slides were thawed and pre-incubated for 15 min in incubation buffer (50 mM TRIS HCl, pH 7.4, containing 120 mM NaCl, 5 mM MgCl2,) at room temperature. Thereafter, 800 µL of incubation buffer, containing 0.1 MBq of the respective radiotracer were pipetted on the slide and incubated at room temperature for 60 min. For displacement studies BIBP3226 (1 µM or 10 µM) was added to the incubation buffer before pipetting on the slides. Afterwards slides were washed by placing in ice cold incubation buffer (3 × 2 min) followed by short dipping in ice cold distilled water. Slides were carefully dried in a stream of warm air and finally placed on an autoradiography film (Fuji Imaging Plate BAS-IP SR 2025 E, Fujifilm, Düsseldorf) overnight prior to readout (25 µm resolution) on the autoradiograph (HD-CR-35 Bio, Raytest, Straubenhardt) and analysis with the software AIDA (Raytest). Additional sections were stained with hematoxylin and eosin (H&E) for comparison with the autoradiography images.

[3] = Octanol-water distribution coefficient logD7.4, shake flask method; format: physicochemical; conditions: 1-octanol/PBS, pH 7.4, PBS/1-octanol, read-out: logD7.4 experimental
Description: The lipophilicity of the radioligands was determined by the distribution coefficient logD7.4. The respective radioligand (10 µL, about 25 kBq) was added to a mixture of PBS (500 µL) and 1-octanol (500 µL) and the emulsion was vortexed for 1 min. After centrifugation 3 × 100 µL were taken of each layer and analysed by a γ-counter. The partition coefficient was calculated as logD7.4=log(cpmoctanol/cpmPBS) . Data were expressed as mean values ± SD from three experiments.

[4] = Radiotracer stability in human serum by radio-HPLC; format: in vitro ADME; conditions: 37 °C
Description: The stability of ^18F-labelled compounds was determined in human serum. An aliquot of the radiotracer (5–10 MBq) was added to 200 µL human serum and incubated at 37 °C. Aliquots of 15 µL were taken after 5, 10, 15, 30, 45, 60, 120 and 180 min and quenched in 100 µL of 10% aqueous TFA. The samples were centrifuged (20000 × g, 2 min), and the supernatants were analysed by radio-HPLC (Chromolith RP-18e, 100 × 4.6 mm, 4 mL/min, 0–1 min 25% CH3CN (0.1% TFA) in water (0.1% TFA), 1–6 min 25–60%, 6–7 min 60–100%, 7–8 min 100%).

MCF-7-Y1 cells = experiment: Cellular accumulation assay in MCF-7-Y1 cells; format: cell-based, human; conditions: nonspecific binding with 10 µM BIBP3226; [^18F]12 at 30 and 60 min
Description: MCF-7-Y1 is a subclone that originated in Prof. […] MCF-7-Y1 cells were cultivated in MEM Earle´s liquid medium with 2.2 g/L NaHCO3 (Merck Biochrom, Darmstadt) containing 10% FBS and 1% L-glutamine. All cells were cultured under sterile conditions in a humidified atmosphere containing 5% CO2 at 37 °C. Cells were routinely passaged twice a week.
The cellular accumulation of Y1R radioligands by MCF-7-Y1 cells was measured: On the day prior to the experiment, 300,000 cells per well were seeded into 24-well plates (Greiner Bio-One). Attached cells were washed twice with cold PBS and 450 µL of assay medium (cell culture medium containing 0.1% BSA) were added to the cells for total binding. For non-specific binding, 400 µL of assay medium and 50 µL of medium containing 10 µM BIBP3226 were added. Finally, 50 µL of medium containing approx. 15 kBq of the respective radiotracer were added to each well, and cells were incubated at 37 °C for 10, 30, 60 or 90 min. After incubation, cells were washed with 500 µL of ice-cold PBS and lysed with 600 µL of warm 1 M NaOH. The lysed cells were transferred to counting tubes and analysed in the γ-counter (Wallac Wizard, Perkin Elmer, Waltham, MA, USA). Separate tubes containing 50 µL of medium with the radiotracer (approx. 15 kBq) were analysed as reference samples. Experiments were performed in sextuplicate (n = 6).

radiometabolites in the blood ([1]; mouse) [%]	stability in the blood in vivo (in words) [1]	intact radioligand in blood samples ([1]; mouse)	kidney uptake [2]	logD [3]	Stability over 3 h in human serum [4] [%]	uptake in the gall bladder ([2]; after 90 min)	SMILES	specific binding to MCF-7-Y1 tumour slices (autoradiography) (MCF-7-Y1 tumour slices)	specific accumulation in MCF-7-Y1 cells (total radioactivity in each well = 100%) (MCF-7-Y1 cells)
> 90	underwent rapid degradation in the blood	less than 5%	less than 5 %ID/g	1.49 ± 0.003	>99		N/C(=N/C(=O)NCc1cn(CCOCCOCCOCC[18F])nn1)NCCC[C@@H](NC(=O)C(c1ccccc1)c1ccccc1)C(=O)NCc1ccc(O)cc1 [[^18F]13, (2R)‐5‐{[(1Z)‐Amino[({[1‐(2‐{2‐[2‐(2‐[^18F]fluoroethoxy)ethoxy]ethoxy}ethyl)‐1H‐1,2,3‐triazol‐4‐yl]methyl}carbamoyl)imino]methyl]amino}‐2‐(2,2‐diphenylacetamido)‐N‐[(4‐hydroxyphenyl)-methyl]pentanamide]	marked specific binding	1%
	higher stability in the blood in vivo	about 50%	less than 5 %ID/g	0.78 ± 0.005	>99	up to 600 %ID/g	N/C(=N/C(=O)NCc1cn([C@@H]2OC(C[18F])[C@@H](O)C(O)C2O)nn1)NCCC[C@@H](NC(=O)C(c1ccccc1)c1ccccc1)C(=O)NCc1ccc(O)cc1 (stereo partly drawn) [[^18F]11, (2R)‐5‐{[(1Z)‐Amino({[({1‐[(2R,5S)‐6‐([^18F]fluoromethyl)‐3,4,5‐trihydroxyoxan‐2‐yl]‐1H‐1,2,3‐triazol‐4‐yl}methyl)carbamoyl]imino})methyl]amino}‐2‐(2,2‐diphenylacetamido)‐N‐[(4‐hydroxyphenyl)-methyl]pentanamide]	very low specific binding	almost no specific binding
